From patent US20080214654A1, “Substituted Benzyloxy-Phenylmethylamide Derivatives” (Bayer HealthCare AG, priority 2004, published 2008)
Where a name gives a salt, the structure may show the parent alone.

Biological target: T1, human CMR-1 (Homo sapiens, UniProt Q7Z2W7)
T1 construct: expressed in transfected cells
Test: Measurement of the menthol-induced Ca2+ influx in HEK293 cells expressing CMR-1 receptor (Assay 1)
Format: cell-based
Conditions: HEK293 cells stably expressing human CMR-1; preincubation with compound, menthol stimulation; fluo4-AM fluorescence
Source text: Measurement of the Menthol-Induced Ca^2+ Influx in […] Cell Expressing CMR-1 Receptor (Assay 1).
A cell-based calcium influx assay using HEK293 cells stably expressing human CMR-1 is used to identify CMR-1 receptor-antagonists. Menthol, a CMR-1 specific agonist, is used for stimulation of these cells, inducing an increase in intracellular calcium. This menthol-induced Ca^2+ increase is traced by fluorescence measurement. Therefore the cells are loaded with fluo4-AM prior to stimulation. For testing inhibitors the cells are preincubated with various concentrations of the compound before menthol stimulation. The potency of potential CMR-1 inhibitors is quantified by measuring decrease of fluorescence.

T1 sequence (Q7Z2W7 whole entry): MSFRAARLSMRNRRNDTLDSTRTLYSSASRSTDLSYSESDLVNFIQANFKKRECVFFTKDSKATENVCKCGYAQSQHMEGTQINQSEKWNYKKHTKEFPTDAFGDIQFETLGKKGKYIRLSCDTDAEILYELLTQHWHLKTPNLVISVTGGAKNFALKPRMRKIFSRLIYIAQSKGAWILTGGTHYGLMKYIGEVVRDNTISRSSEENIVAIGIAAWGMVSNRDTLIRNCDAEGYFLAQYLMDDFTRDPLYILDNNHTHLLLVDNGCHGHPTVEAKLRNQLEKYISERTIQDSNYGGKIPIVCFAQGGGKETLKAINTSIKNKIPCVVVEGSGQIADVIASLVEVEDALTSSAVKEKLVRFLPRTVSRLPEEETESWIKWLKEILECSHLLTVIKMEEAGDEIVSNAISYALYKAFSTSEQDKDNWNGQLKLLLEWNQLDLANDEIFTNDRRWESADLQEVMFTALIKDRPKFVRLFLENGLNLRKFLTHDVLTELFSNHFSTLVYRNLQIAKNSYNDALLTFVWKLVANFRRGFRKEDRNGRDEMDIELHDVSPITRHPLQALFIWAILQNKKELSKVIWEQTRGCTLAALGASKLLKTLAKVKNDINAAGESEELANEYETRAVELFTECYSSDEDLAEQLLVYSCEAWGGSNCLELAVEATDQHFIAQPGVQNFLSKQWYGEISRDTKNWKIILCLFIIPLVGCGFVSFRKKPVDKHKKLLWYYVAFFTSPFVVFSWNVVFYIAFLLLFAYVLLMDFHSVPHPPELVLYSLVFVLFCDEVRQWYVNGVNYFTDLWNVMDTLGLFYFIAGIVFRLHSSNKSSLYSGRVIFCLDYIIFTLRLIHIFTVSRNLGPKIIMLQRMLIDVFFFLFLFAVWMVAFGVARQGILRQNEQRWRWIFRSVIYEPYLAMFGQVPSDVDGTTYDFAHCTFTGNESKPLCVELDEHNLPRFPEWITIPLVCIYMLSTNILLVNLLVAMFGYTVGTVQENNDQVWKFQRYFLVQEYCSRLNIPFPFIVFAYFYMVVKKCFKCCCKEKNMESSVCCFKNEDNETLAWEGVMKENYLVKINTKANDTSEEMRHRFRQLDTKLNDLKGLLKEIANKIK

Row | Structure (SMILES) | IC50 [nM]
1 | COc1cc(CN(CCN)C(=O)CC(C)(C)C)ccc1OCc1ccc(F)cc1F [Example 20] | 8
2 | COc1cc(CN(Cc2ccccc2)C(=O)c2ccccc2)ccc1OCc1ccc(F)cc1 [Example 38, N-benzyl-N-{4-[(4-fluorobenzyl)oxy]-3-methoxybenzyl}benzamide] | 40
3 | COc1cc(CN(CCCNC(=O)OC(C)(C)C)C(=O)c2cccs2)ccc1OCc1ccc(F)cc1 [Example 10] | 70
4 | COc1cc(CN(CCN)C(=O)c2cccs2)ccc1OCc1ccccc1F [Example 17, N-(2-aminoethyl)-N-{4-[(2-fluorobenzyl)oxy]-3-methoxybenzyl}thiophene-2-carboxamide trifluoroacetate] | 1

Continued, values first:

Row | IC50 [nM] | Structure (SMILES)
5 | 150 | COc1cc(CN(CCN)C(=O)c2ccccc2)ccc1OCc1ccccc1 [Example 4-1, N-(2-aminoethyl)-N-[4-(benzyloxy)-3-methoxybenzyl]benzamide trifluoroacetate]
6 | 1 | COc1cc(CN(CCN)C(=O)c2cccs2)ccc1OCc1ccccc1 [Example 3-1, N-(2-aminoethyl)-N-[4-(benzyloxy)-3-methoxybenzyl]thiophene-2-carboxamide hydrochloride]
